According to patent US20200341000A1, “METHOD OF SCREENING COMPOUNDS FOR TREATING CNS DISORDERS” (SAGE THERAPEUTICS, INC., priority 2017, published 2020):
pEC50: −log10 of the molar value. Entries after “also recorded” stand apart in the source; their conditions may differ. Marks after values point to notes of the source that are not given here.

Key:
[1] = tested on: sIPSCs in dentate gyms granule cells (DGGCs); assay: Acute (allosteric) modulation of sIPSCs in DGGCs of hippocampal slices; format: cell-based, mice
Experimental: (§1) Brain slices were prepared from 3- to 5-week-old male C57 mice. Mice were anesthetized with isoflurane, decapitated, and brains were rapidly removed and submerged in ice-cold cutting solution containing (mM): 126 NaCl, 2.5 KCl, 0.5 CaCl2, 2 MgCl2, 26 NaHCO3, 1.25 NaH2PO4, 10 glucose, 1.5 sodium pyruvate, and 3 kynurenic acid. Coronal 310 μm thick slices were cut with the vibratome VT1000S (Leica Microsystems, St Louis, Mo., USA). The slices were then transferred into incubation chamber filled with prewarmed (31-32° C.) oxygenated artificial cerebro-spinal fluid (ACSF) of the following composition (in mM): 126 NaCl, 2.5 KCl, 2 CaCl2, 2 MgCl2, 26 NaHCO3, 1.25 NaH2PO4, 10 glucose, 1.5 sodium pyruvate, 1 glutamine, 3 kynurenic acid and 0.005 GABA bubbled with 95% O2-5% CO2. Slices were allowed to recover at 32° C. for at least 1 hr before recording. Exogenous GABA was added in an attempt to standardize ambient GABA in the slice and provide an agonist source for newly inserted extrasynaptic GABAARs.
(§2) After recovery, a single slice was transferred to a submerged, dual perfusion recording chamber (Warner Instruments, Hamden, Conn., USA) on the stage of an upright microscope (Nikon FN-1) with a 40× water immersion objective equipped with DIC/IR optics. Slices were maintained at 32° C. and gravity-superfused with ACSF solution throughout experimentation and perfused at rate of 2 ml/min with oxygenated (O2/CO2 95/5%) ACSF.
(§3) Whole-cell currents were recorded from the dentate gyms granule cells (DGGCs) in 310-μm-thick coronal hippocampal slices. Patch pipettes (5-7MΩ) were pulled from borosilicate glass (World Precision Instruments) and filled with intracellular solution of the composition (in mM) as follows: 140 CsCl, 1 MgCl2, 0.1 EGTA, 10 HEPES, 2 Mg-ATP, 4 NaCl and 0.3 Na-GTP (pH=7.2 with CsOH). A 5 min period for stabilization after obtaining the whole-cell recording conformation (holding potential of −60 mV) was allowed before currents were recorded using an Axopatch 200B amplifier (Molecular Devices), low-pass filtered at 2 kHz, digitized at 20 kHz (Digidata 1440A; Molecular Devices), and stored for offline analysis.
(§4) For tonic current measurements, an all-points histogram was plotted for a 10 s period before and during 100 μM picrotoxin application, once the response reached a plateau level. Recordings with unstable baselines were discarded. Fitting the histogram with a Gaussian distribution gave the mean baseline current amplitude and the difference between the amplitudes before and during picrotoxin was considered to be the tonic current. The negative section of the all-points histogram which corresponds to the inward IPSCs was not fitted with a Gaussian distribution (Kretschmannova et al., 2013; Nusser and Mody, 2002). Series resistance and whole-cell capacitance were continually monitored and compensated throughout the course of the experiment. Recordings were eliminated from data analysis if series resistance increased by >20%. Spontaneous inhibitory post-synaptic currents (sIPSCs) were analyzed using the mini-analysis software (version 5.6.4; Synaptosoft, Decatur, Ga.). Minimum threshold detection was set to 3 times the value of baseline noise signal. To assess sIPSC kinetics, the recording trace was visually inspected and only events with a stable baseline, sharp rising phase, and single peak were used to negate artifacts due to event summation. Only recordings with a minimum of 200 events fitting these criteria were analyzed. sIPSCs amplitude, and frequency from each experimental condition was pooled and expressed as mean±SEM. To measure sIPSC decay, 100 consecutive events were averaged and the decay was fitted to a double exponential and the weighted decay constant (tw) was determined. Statistical analysis was performed by using Student t-test (paired and unpaired where appropriate), where p<0.05 is considered significant.

[2] = tested on: GABA receptor trafficking; assay: GABA receptor trafficking measured by GABAergic current density (FIG. 14); format: cell-based; details: measured by the GABAergic current density
Text: As shown in above examples, not all neurosteroids can modulate GABA receptor trafficking.

[3] = tested on: tonic current in dentate gyms granule cells (DGGCs); assay: Acute (allosteric) modulation of tonic current in DGGCs of hippocampal slices; format: cell-based, mice; details: 100 nM, 10 min acute exposure, then 100 μM picrotoxin; mean±SEM
Experimental: as §1, with “GABAARs. […]” for “GABAARs.”
Whole-cell currents were recorded from the dentate gyms granule cells (DGGCs) in 310-μm-thick coronal hippocampal slices. […] A 5 min period for stabilization after obtaining the whole-cell recording conformation (holding potential of −60 mV) was allowed before currents were recorded using an Axopatch 200B amplifier (Molecular Devices), low-pass filtered at 2 kHz, digitized at 20 kHz (Digidata 1440A; Molecular Devices), and stored for offline analysis.
For tonic current measurements, an all-points histogram was plotted for a 10 s period before and during 100 μM picrotoxin application, once the response reached a plateau level. […] Series resistance and whole-cell capacitance were continually monitored and compensated throughout the course of the experiment. […] Spontaneous inhibitory post-synaptic currents (sIPSCs) were analyzed using the mini-analysis software (version 5.6.4; Synaptosoft, Decatur, Ga.). […] Only recordings with a minimum of 200 events fitting these criteria were analyzed. sIPSCs amplitude, and frequency from each experimental condition was pooled and expressed as mean±SEM. […]

[4] = tested on: tonic current in dentate gyms granule cells (DGGCs); assay: Sustained (metabotropic) enhancement of tonic current in DGGCs after 15 min exposure and washout; format: cell-based, mice
Experimental: as §1, §2, §3, §4

α1β2γ2 GABAA receptors = target: T1, α1β2γ2 GABAA receptors (Homo sapiens, UniProt P14867+P18507+P47870); assay: Whole-cell patch clamp, potentiation of GABA EC20 currents at recombinant synaptic-type receptors (LTK cells); format: cell-based; details: n = 3; for pEC50: α1β2γ2, GABA EC20 (2 μM)
T1 construct: expressed in transfected cells
T1 sequence (P14867 28-456): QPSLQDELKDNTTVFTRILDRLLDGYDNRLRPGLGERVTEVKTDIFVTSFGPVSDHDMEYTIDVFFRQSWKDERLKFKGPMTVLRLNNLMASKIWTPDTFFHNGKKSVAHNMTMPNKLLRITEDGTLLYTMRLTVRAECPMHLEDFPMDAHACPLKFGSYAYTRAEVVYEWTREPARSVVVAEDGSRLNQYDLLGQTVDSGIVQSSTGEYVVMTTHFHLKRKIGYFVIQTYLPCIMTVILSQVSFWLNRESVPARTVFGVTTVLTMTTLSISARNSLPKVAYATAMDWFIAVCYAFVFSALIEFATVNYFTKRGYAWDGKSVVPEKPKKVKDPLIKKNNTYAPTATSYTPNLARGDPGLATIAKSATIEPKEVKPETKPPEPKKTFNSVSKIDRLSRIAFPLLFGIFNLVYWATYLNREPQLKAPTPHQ
T1 sequence (P47870 25-512 limits assumed): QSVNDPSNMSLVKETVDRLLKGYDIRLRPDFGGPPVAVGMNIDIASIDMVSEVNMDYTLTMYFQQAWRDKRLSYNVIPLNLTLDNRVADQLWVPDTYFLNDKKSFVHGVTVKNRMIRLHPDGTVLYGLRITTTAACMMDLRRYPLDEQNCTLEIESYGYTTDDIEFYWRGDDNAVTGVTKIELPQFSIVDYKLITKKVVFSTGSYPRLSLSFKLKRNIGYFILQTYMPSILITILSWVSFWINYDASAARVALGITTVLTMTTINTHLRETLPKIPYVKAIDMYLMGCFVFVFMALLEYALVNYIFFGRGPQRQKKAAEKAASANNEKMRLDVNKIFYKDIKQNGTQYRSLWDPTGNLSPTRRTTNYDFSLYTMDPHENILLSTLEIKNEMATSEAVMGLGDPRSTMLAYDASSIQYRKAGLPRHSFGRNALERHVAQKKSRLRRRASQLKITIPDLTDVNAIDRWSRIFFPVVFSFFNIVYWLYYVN
T1 sequence (P18507 40-475): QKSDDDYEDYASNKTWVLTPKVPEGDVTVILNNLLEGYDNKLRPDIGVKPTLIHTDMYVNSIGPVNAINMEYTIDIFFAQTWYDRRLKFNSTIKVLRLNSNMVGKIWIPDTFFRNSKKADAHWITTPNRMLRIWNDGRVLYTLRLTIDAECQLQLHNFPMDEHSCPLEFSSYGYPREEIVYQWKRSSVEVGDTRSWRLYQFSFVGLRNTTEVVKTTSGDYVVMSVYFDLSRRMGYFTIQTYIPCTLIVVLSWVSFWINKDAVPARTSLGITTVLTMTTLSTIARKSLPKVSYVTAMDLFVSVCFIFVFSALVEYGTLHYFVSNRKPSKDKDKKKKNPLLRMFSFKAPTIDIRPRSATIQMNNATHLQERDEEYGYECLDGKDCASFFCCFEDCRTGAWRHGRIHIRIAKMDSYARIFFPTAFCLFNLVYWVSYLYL
Experimental: (§5) Cellular electrophysiology was used to measure the pharmacological properties of ALLO, ganaxolone and SGE-516 in heterologous cell systems. Compounds were tested for their ability to affect GABA mediated currents at a submaximal agonist dose (GABA EC20=2 μM).
(§6) LTK cells were stably transfected with the α1β2γ2 subunits of the GABA receptor and CHO cells are transiently transfected with the α4β3γ subunits via the Lipofecatamine method. Cells were passaged at a confluence of about 50-80% and then seeded onto 35 mm sterile culture dishes containing 2 ml culture complete medium without antibiotics or antimycotics. Cells were cultivated at a density that enabled the recording of single cells without visible connections to other cells.
(§7) Whole-cell currents were measured with HEKA EPC-10 amplifiers using PatchMaster software. Bath solution for all experiments contained (in mM): NaCl 137, KCl 4, CaCl2 1.8, MgCl2 1, HEPES 10, D-Glucose 10, pH 7.4 with NaOH. Intracellular (pipette) solution contained (in mM): KCl 130, MgCl2 1, Mg-ATP 5, HEPES 10, EGTA 5, pH 7.2 with KOH. During experiments, cells and solutions were maintained at room temperature (19° C.-30° C.). For manual patchclamp recordings, cell culture dishes were placed on the dish holder of the microscope and continuously perfused (1 ml/min) with bath solution. After formation of a Gigaohm seal between the patch electrode and the cell (pipette resistance range: 2.5 MΩ-6.0MΩ; seal resistance range: >1 GΩ) the cell membrane across the pipette tip was ruptured to assure electrical access to the cell interior (whole-cell patch configuration).
(§8) Cells were voltage-clamped at a holding potential of −80 mV. GABAA receptors were activated by 2 μM GABA and compounds were sequentially applied at increasing concentrations for 30 s prior to a 2 s application of GABA. GABA and compounds were applied to cells via the Dynaflow perfusion system (Cellectricon, Sweden). Test compounds were dissolved in DMSO to form 10 mM stock solution and serially diluted to 0.01, 0.1, 1, and 10 μM in bath solution. […] All concentrations of test compound were tested on each cell. The relative percentage potentiation was defined as the peak amplitude in response to GABA EC20 in the presence of test compound divided by the peak amplitude in response to GABA EC20 alone, multiplied by 100.
(§9) ALLO and ganaxolone are known PAMs of both synaptic and extrasynaptic GABAAR-mediated currents. […] The α1β2γ2 or α4β3δ subunit combinations were chosen as representatives of typical synaptic and extrasynaptic GABAA receptors respectively.

α4β3δ GABAA receptors = target: T2, α4β3δ GABAA receptors (Homo sapiens, UniProt O14764+P28472+P48169); assay: Whole-cell patch clamp, potentiation of GABA EC20 currents at recombinant extrasynaptic-type receptors (CHO cells); format: cell-based
T2 construct: expressed in transfected cells; host or cells: CHO cells (transient transfection, Lipofectamine)
T2 sequence (P48169 36-554): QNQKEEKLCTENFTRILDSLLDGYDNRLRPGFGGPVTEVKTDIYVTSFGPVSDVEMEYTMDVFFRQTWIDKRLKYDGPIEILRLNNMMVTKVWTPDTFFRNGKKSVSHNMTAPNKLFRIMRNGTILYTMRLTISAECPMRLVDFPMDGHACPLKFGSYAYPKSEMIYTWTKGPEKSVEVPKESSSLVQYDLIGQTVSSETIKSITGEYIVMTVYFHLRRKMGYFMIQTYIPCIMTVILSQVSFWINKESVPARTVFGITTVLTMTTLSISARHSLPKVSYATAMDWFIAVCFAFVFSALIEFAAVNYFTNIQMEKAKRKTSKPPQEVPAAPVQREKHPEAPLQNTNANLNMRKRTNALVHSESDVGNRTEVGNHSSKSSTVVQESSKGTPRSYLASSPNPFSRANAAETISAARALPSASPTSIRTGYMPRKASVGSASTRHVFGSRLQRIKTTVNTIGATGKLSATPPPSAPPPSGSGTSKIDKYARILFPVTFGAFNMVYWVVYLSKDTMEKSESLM
T2 sequence (P28472 26-473): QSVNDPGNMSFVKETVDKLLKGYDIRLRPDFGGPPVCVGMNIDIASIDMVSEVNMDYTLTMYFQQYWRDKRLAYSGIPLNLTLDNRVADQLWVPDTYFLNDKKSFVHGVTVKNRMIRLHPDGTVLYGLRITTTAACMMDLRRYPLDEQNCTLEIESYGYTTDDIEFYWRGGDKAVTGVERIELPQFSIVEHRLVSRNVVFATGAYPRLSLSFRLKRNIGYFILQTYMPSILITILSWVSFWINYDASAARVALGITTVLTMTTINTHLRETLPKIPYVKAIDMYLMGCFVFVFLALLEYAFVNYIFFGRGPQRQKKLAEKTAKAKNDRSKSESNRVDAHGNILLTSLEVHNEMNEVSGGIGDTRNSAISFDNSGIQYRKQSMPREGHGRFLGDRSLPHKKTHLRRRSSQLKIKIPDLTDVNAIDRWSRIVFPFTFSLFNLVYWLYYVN
T2 sequence (O14764 25-452): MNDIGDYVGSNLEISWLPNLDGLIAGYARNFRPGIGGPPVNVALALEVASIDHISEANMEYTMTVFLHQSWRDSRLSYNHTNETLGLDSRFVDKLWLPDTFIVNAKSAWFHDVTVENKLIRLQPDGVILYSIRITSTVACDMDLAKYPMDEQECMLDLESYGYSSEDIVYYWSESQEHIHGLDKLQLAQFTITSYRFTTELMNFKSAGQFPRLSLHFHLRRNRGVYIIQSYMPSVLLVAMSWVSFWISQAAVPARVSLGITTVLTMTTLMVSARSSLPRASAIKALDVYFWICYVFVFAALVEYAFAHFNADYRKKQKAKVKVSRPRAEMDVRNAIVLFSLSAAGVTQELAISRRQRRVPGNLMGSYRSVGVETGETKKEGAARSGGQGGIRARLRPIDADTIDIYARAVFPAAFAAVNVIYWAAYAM
Experimental: as §5, §6, §7, §8, §9

[5] = tested on: GABA-evoked currents in GT1-7 cells; assay: Patch-clamp of GABA-induced currents in GT1-7 cells, compound in the pipette electrolyte; format: cell-based; details: 100 nM in electrolyte, GABA EC20, 20 min time course
Experimental: Patch-clamp recordings were made from GT1-7 cells. The magnitude of the GABA-induced currents (IGABA) at EC20 agonists concentration were then measured, in the presence of control electrolyte or that supplemented with 100 nM ALLO, or 100 nM ORG OD 02-0 over a time course of 20 min.

[6] = tested on: GABAA receptor β3 subunit S408/9 phosphorylation; assay: Immunoblot of β3 S408/9 phosphorylation in hippocampal slices; format: cell-based, mice; details: 100 nM
Experimental: Hippocampi were dissected out of acute slices from 8 to 12 week old C57/B16 mice and lysed with phosphate buffer including: 20 mM Tris-HCl, 150 mM NaCl, 5 mM EDTA, 10 mM NaF, 2 mM Na3VO4, 10 mM pyrophosphate, 0.1% SDS and 1% Triton after drug treatment. The β3 subunit was isolated using immunoprecipitation with β3 antibodies, after correction for protein content and the specific activity of labeling. Results were attained by SDS/PAGE followed by autoradiography (Abramian et al., 2010). For biotinylation experiments hippocampi were dissected out of acute slices from 8 to 12 week old C57/B16 mice and incubated in artificial cerebrospinal fluid (ACSF) described above at 30° C. for 1 h for recovery before experimentation. Slices were then placed on ice and incubated for 30 min with 1 mg/mL NHS-SS-biotin (Pierce). Excess biotin was removed by a 50 mM glycine quenching buffer, followed by washing of slices three times in ice-cold ACSF. The tissue was snap frozen on dry ice for 5 min, thawed at 4° C. and lysed. The lysates were solubilized with 2% Triton at 4° C. on a rotating wheel for 1 h. The insoluble material was removed by centrifugation, and 350-500 μg of protein lysate were incubated with NeutrAvidin beads (Pierce) for 18-24 h at 4° C. Bound material was eluted with sample buffer and subjected to SDS/PAGE and then immunoblotted with the indicated antibodies. Blots were then quantified using the CCD-based ChemiDoc XRS ? system. Antibodies against the β3 subunit and the phospho-β3 antibody were generated and verified by the laboratory of S.J.M. (Vien et al., 2015).
To produce antibodies specific for phosphorylated S443, rabbits were injected with a synthetic peptide corresponding to residues […] of the murine α4 subunit in which the serine residue corresponding to S443 was chemically phosphorylated; […]. Hippocampal slices were treated with vehicle (Con), or SGE-516 for 20 min. Slices were immunoblotted with pS408/9, β3, or actin antibodies. The ratio of pS408/9/β3 immunoreactivity was then normalized to control slices (100%=the line).
Hippocampal slices were treated with 100 nM ALLO or P4 (progesterone), and S408/9 phosphorylation was then determined as detailed above, n=4 slices (FIG. 18D). Hippocampal slices were treated with 100 nM ORG (FIG. 18E). S408/9 phosphorylation was examined using immunoblotting.

[7] = target: T3, GABAARs composed of α4β3 subunits (Homo sapiens, UniProt P28472+P48169); assay: Acute modulation of GABA-induced currents in HEK-293 cells; format: cell-based; set-up: dose or concentration left out as unconfirmed; details: rapidly applied with GABA
T3 construct: expressed in transfected cells; host or cells: HEK-293
T3 sequence (P48169 36-554): as the sequence (P48169 36-554) above
T3 sequence (P28472 26-473): as the sequence (P28472 26-473) above

[8] = 100 nM acute exposure, n = 5 to 7 neurons

Row | Structure (SMILES) | mean sIPSC amplitude before versus during exposure ([1]; 100 nM) | mean sIPSC decay time in the presence of compound ([1]; 100 nM) | sIPSC Amplitude [1, 8] | sIPSC Decay [1, 8] | sIPSC Frequency [1, 8] | modulation of GABA receptor trafficking [2] | tonic current during acute exposure [3] | tonic current after exposure and washout ([4]; 1 μM, 15 min incubation, 30-60 min wash, vehicle 43.9±5.7 pA) | change of tonic current versus vehicle ([4]; 1 μM, 15 min incubation, wash) | pEC50 (α1β2γ2 GABAA receptors; EC50, potentiation of GABA current) | pEC50 (α1β2γ2 GABAA receptors; pEC50 ± S.E.M.) | Emax ± S.E.M., α1β2γ2 (α1β2γ2 GABAA receptors; relative percentage potentiation of GABA EC20 peak current) | pEC50 (α4β3δ GABAA receptors) | Emax (α4β3δ GABAA receptors; CHO, relative percentage potentiation of GABA EC20 peak current, n = 3, read-out: Emax ± S.E.M., α4β3δ) | Emax ± S.E.M., α4β3δ (α4β3δ GABAA receptors; relative percentage potentiation of GABA EC20 peak current, n = 3) | GABA-evoked currents (IGABA) over time [5] | amplitude and density of GABAergic tonic current at varying doses ([4]; protocol as in FIG. 3, n=6-8 cells) | S408/9 phosphorylation in hippocampal slices [6] | acute modulation of GABA-evoked current (IGABA) [7]
1 | CC(=O)[C@H]1CC[C@H]2[C@@H]3CC[C@H]4C[C@](C)(O)CC[C@]4(C)[C@H]3CC[C@]12C [Ganaxolone] | no significant difference | significantly increased | 55.1 ± 0.7 pA | 23.6 ± 2.9^c ms | 5.6 ± 1.7 Hz | did not modulate GABA receptor trafficking | 78.8±23.2 pA | 57.4±6.3 pA | did not significantly alter; also recorded: No significant change | 6.59 | 6.80 | 400 ± 27% | 7.03 | 225% | 225 ± 8% |  |  |  | 
2 | C=C[C@]12CCC(=O)C=C1CC[C@H]1[C@@H]3CC[C@H](C(C)=O)[C@@]3(C)CC[C@@H]12 [ORG OD 02-0] |  |  |  |  |  |  |  |  |  |  |  |  |  |  |  | sustained increases | dosage-dependent effect; also recorded: dosage dependent effect | regulated | did not acutely modulate; also recorded: does not acutely modulate
